Experimental data published in paper PMC11233931, “Remodeling tumor‐associated macrophage for anti‐cancer effects by rational design of irreversible inhibition of mitogen‐activated protein kinase‐activated protein kinase 2” (MedComm, 2024).

Legend:
Test in all cases: Eurofins kinase selectivity profile against 380 other human recombinant kinases (Table S2)
Assay type in all cases: biochemical
[1] = molecular target: T1, 380 human recombinant protein kinases (Homo sapiens, UniProt Q9Y6E0); settings: MST3(h), read-out: Inhibition rate
T1 construct: purchased Eurofins (Celle Lévescault)
How it was run: (§1)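 Selectivity panel of 380 human recombinant protein kinases, screened by Eurofins at a range of concentrations.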

[2] = molecular target: T2, 380 human recombinant protein kinases (Homo sapiens, UniProt Q13627); settings: DYRK1A(h), read-out: Inhibition rate
T2 construct: purchased Eurofins (Celle Lévescault)
How it was run: as §1

[3] = molecular target: T3, 380 human recombinant protein kinases (Homo sapiens, UniProt P20794); settings: MAK(h), read-out: Inhibition rate
T3 construct: purchased Eurofins (Celle Lévescault)
T3 sequence (P20794 1-623): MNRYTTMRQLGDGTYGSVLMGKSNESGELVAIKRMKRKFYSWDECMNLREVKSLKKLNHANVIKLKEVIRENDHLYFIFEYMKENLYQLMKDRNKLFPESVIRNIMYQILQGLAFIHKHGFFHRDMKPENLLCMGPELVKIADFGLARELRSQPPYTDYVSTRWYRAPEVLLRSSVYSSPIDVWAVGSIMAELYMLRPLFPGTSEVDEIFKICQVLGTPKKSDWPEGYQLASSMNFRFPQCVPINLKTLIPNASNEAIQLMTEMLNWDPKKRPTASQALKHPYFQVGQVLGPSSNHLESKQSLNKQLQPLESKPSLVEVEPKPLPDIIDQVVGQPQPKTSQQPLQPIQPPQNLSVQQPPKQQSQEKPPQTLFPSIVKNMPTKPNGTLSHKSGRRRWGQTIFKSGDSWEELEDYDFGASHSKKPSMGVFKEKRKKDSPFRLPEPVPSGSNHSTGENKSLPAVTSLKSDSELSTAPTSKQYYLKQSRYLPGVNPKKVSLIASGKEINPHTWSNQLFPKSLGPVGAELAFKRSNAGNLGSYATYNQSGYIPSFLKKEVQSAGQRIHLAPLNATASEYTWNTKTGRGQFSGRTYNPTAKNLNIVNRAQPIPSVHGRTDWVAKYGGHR
How it was run: as §1

[4] = molecular target: T4, 380 human recombinant protein kinases (Homo sapiens, UniProt Q13554); settings: CaMKIIβ(h), read-out: Inhibition rate
T4 construct: purchased Eurofins (Celle Lévescault)
How it was run: as §1

[5] = molecular target: T5, 380 human recombinant protein kinases (Homo sapiens, UniProt O75676); settings: MSK2(h), read-out: Inhibition rate
T5 construct: purchased Eurofins (Celle Lévescault)
How it was run: as §1

[6] = molecular target: T6, 380 human recombinant protein kinases (Homo sapiens, UniProt Q9H4A3); settings: WNK1(h), read-out: Inhibition rate (%)
T6 construct: purchased Eurofins (Celle Lévescault)
How it was run: as §1

[7] = molecular target: T7, 380 human recombinant protein kinases (Homo sapiens, UniProt P19525); settings: PKR(h), read-out: Inhibition rate
T7 construct: purchased Eurofins (Celle Lévescault)
How it was run: as §1

[8] = molecular target: T8, 380 human recombinant protein kinases (Homo sapiens, UniProt Q92918); settings: HPK1(h), read-out: Inhibition rate
T8 construct: purchased Eurofins (Celle Lévescault)
How it was run: as §1

[9] = molecular target: T9, 380 human recombinant protein kinases (Homo sapiens, UniProt P42681); settings: Txk(h), read-out: Inhibition rate (%)
T9 construct: purchased Eurofins (Celle Lévescault)
T9 sequence (P42681 1-527): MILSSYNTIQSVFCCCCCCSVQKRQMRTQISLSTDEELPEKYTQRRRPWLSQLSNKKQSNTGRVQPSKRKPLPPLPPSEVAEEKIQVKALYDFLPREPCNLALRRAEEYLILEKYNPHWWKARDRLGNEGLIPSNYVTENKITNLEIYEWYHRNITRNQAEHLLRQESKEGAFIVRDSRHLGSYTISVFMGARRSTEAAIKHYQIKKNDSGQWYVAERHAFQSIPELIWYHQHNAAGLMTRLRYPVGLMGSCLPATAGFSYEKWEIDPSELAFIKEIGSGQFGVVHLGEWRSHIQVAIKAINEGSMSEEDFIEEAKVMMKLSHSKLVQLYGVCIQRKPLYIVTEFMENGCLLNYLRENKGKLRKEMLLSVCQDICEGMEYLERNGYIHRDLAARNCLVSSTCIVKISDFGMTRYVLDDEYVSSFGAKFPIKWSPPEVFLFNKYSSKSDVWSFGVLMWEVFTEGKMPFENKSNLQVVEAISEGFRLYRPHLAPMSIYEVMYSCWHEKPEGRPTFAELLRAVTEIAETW
How it was run: as §1

[10] = molecular target: T10, 380 human recombinant protein kinases (Homo sapiens, UniProt P53355); settings: DAPK1(h), read-out: Inhibition rate
T10 construct: purchased Eurofins (Celle Lévescault)
How it was run: as §1

[11] = molecular target: T11, 380 human recombinant protein kinases (Homo sapiens, UniProt Q9HBH9); settings: Mnk2(h), read-out: Inhibition rate
T11 construct: purchased Eurofins (Celle Lévescault)
How it was run: as §1

[12] = molecular target: T12, 380 human recombinant protein kinases (Homo sapiens, UniProt P28482); settings: MAPK2(h), read-out: Inhibition rate
T12 construct: purchased Eurofins (Celle Lévescault)
How it was run: as §1

[13] = molecular target: T13, 380 human recombinant protein kinases (Homo sapiens, UniProt Q06187, R28H); settings: BTK(R28H)(h), read-out: Inhibition rate
T13 construct: purchased Eurofins (Celle Lévescault)
How it was run: as §1

T1 sequence (Q9Y6E0 whole entry): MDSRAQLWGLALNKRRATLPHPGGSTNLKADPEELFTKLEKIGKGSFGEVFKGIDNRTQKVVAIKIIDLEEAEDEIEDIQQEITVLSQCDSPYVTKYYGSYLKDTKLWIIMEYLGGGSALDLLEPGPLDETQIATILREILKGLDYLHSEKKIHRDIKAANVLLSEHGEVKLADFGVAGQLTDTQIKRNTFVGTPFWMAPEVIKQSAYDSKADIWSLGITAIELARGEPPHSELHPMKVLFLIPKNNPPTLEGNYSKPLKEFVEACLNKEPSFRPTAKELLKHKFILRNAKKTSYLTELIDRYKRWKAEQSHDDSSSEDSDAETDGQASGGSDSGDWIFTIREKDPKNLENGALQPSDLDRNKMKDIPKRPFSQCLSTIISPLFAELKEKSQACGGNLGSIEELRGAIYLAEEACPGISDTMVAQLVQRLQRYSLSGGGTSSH
T8 sequence (Q92918 whole entry): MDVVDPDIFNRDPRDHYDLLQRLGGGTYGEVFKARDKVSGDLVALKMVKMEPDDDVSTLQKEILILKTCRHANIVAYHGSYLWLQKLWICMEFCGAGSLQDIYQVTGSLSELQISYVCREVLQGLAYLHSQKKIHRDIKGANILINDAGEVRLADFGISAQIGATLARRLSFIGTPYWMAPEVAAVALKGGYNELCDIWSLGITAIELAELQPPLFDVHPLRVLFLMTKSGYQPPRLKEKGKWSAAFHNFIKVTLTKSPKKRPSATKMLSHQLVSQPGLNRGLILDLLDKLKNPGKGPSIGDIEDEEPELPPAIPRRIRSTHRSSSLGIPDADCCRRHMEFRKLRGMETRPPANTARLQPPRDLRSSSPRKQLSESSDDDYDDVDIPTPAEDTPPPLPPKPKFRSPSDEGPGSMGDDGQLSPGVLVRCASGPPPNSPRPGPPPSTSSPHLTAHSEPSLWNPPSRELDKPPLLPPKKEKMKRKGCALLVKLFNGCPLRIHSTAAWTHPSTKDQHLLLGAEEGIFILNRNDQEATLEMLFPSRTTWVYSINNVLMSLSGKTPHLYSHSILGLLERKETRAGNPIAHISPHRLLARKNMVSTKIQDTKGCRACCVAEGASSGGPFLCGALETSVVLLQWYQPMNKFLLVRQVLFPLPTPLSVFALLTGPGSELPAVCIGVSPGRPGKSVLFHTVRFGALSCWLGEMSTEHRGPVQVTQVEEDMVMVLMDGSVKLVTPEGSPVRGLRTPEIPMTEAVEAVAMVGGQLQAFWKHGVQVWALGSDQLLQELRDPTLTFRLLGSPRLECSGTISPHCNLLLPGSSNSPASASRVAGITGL
T10 sequence (P53355 whole entry): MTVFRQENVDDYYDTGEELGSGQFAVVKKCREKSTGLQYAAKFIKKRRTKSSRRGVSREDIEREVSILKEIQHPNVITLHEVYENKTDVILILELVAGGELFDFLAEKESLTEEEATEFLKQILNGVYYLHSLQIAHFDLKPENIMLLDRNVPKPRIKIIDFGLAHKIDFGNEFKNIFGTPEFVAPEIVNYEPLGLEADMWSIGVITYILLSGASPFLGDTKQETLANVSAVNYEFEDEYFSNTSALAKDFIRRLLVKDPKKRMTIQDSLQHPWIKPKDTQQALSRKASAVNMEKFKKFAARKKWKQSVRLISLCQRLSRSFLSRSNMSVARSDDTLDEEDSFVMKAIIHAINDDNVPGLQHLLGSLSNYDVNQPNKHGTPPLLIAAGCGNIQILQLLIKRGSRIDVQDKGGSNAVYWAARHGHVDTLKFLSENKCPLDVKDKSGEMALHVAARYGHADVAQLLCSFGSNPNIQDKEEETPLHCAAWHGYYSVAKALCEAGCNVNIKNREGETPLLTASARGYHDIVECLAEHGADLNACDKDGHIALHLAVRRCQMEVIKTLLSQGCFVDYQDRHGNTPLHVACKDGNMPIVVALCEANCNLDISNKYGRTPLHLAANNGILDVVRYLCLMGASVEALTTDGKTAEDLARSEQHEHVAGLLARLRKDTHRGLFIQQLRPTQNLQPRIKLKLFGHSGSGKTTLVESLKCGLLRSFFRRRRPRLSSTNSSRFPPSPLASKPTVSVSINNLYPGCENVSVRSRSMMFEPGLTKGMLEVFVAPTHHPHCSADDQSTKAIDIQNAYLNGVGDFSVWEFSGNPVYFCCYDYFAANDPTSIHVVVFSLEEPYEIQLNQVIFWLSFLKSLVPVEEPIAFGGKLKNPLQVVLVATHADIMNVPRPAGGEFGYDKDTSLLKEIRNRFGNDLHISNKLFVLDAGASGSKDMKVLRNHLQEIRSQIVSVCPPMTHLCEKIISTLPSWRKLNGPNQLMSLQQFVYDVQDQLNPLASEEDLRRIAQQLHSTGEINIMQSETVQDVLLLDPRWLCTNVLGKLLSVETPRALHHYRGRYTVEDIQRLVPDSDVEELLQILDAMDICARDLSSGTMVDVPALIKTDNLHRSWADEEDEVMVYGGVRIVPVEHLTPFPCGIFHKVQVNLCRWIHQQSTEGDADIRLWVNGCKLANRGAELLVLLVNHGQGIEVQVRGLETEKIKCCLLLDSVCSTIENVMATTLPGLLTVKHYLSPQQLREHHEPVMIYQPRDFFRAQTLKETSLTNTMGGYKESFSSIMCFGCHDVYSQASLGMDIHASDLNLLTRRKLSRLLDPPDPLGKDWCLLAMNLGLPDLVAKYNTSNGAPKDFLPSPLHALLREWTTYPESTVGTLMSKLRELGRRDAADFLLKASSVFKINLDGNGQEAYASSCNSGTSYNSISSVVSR
T4 sequence (Q13554 whole entry): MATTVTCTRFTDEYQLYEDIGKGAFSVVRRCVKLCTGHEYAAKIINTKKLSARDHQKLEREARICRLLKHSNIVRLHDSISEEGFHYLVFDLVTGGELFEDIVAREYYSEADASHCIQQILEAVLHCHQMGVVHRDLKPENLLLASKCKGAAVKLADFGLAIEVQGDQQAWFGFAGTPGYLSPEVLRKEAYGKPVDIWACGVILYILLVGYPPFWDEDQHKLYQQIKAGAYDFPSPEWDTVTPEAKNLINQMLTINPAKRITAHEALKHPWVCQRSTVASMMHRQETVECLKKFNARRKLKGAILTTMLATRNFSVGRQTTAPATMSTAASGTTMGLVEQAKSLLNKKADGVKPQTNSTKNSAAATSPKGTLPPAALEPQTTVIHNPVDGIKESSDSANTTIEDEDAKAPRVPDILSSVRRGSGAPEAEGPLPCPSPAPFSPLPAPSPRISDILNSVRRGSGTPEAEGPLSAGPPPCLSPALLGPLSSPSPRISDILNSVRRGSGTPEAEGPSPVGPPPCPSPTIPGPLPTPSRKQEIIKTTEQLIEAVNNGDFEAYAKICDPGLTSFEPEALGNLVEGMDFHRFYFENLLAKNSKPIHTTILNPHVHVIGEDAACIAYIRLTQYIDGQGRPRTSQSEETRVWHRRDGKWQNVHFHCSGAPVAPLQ
T7 sequence (P19525 whole entry): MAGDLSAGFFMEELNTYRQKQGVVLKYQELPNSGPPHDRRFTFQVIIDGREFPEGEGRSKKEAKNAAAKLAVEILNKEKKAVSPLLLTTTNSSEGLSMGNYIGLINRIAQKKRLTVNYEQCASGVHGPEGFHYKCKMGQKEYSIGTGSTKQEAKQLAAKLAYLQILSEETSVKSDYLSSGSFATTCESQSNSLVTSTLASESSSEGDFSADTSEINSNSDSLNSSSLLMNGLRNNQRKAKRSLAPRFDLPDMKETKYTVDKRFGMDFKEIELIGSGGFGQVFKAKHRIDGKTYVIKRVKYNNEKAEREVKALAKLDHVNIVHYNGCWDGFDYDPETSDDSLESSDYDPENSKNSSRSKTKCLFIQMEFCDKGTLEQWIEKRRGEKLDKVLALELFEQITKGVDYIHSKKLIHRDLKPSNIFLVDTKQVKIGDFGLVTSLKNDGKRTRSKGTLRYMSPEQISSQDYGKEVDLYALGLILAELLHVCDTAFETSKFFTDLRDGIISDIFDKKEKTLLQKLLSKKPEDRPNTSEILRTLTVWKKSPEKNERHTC
T12 sequence (P28482 whole entry): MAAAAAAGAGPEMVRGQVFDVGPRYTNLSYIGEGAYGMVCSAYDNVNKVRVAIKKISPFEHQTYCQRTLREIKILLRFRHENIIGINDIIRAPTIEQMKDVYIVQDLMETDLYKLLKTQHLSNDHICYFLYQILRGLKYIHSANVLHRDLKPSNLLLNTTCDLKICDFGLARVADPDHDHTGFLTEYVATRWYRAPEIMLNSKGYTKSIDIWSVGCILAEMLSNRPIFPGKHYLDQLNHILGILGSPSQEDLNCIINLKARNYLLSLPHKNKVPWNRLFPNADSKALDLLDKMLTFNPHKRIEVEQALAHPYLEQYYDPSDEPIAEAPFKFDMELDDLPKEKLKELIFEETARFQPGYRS
T11 sequence (Q9HBH9 whole entry): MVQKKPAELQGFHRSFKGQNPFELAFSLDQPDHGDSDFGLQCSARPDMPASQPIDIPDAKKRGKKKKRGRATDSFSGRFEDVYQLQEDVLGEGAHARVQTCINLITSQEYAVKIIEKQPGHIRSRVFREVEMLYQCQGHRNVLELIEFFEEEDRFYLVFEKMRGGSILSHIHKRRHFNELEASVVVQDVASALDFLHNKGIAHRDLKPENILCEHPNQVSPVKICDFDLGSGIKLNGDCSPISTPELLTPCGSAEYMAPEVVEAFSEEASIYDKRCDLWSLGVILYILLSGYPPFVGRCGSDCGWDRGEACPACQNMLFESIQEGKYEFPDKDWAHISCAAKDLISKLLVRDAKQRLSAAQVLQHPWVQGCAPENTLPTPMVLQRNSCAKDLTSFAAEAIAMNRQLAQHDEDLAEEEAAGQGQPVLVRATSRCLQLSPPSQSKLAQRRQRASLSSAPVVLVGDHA

C=CC(=O)Nc1cc(-c2cc(-c3cc4c([nH]3)CCNC4=O)ccn2)ccc1OC(F)(F)F [compound 11]
inhibition at 0.01 µM ([1]; 10 nM): -6% | inhibition at 0.1 µM ([1]; 100 nM): 2% | inhibition at 1 µM ([1]; 1000 nM): 2% | inhibition at 0.01 µM ([2]; 10 nM): 20% | inhibition at 0.1 µM ([2]; 100 nM): 76% | inhibition at 1 µM ([2]; 1000 nM): 96% | inhibition at 0.01 µM ([3]; 10 nM): -9% | inhibition at 0.1 µM ([3]; 100 nM): -1% | inhibition at 1 µM ([3]; 1000 nM): -2% | inhibition at 0.01 µM ([4]; 10 nM): -1% | inhibition at 0.1 µM ([4]; 100 nM): 9% | inhibition at 1 µM ([4]; 1000 nM): 14% | inhibition at 0.01 µM ([5]; 10 nM): -8% | inhibition at 0.1 µM ([5]; 100 nM): -5% | inhibition at 1 µM ([5]; 1000 nM): -13% | inhibition at 0.01 µM ([6]; 10 nM): 6% | inhibition at 0.1 µM ([6]; 100 nM): 2% | inhibition at 1 µM ([6]; 1000 nM): 4% | inhibition at 0.01 µM ([7]; 10 nM): 3% | inhibition at 0.1 µM ([7]; 100 nM): 3% | inhibition at 1 µM ([7]; 1000 nM): 9% | inhibition at 0.01 µM ([8]; 10 nM): -8% | inhibition at 0.1 µM ([8]; 100 nM): -15% | inhibition at 1 µM ([8]; 1000 nM): 1% | inhibition at 0.01 µM ([9]; 10 nM): -3% | inhibition at 0.1 µM ([9]; 100 nM): 1% | inhibition at 1 µM ([9]; 1000 nM): -1% | inhibition at 0.01 µM ([10]; 10 nM): 2% | inhibition at 0.1 µM ([10]; 100 nM): 5% | inhibition at 1 µM ([10]; 1000 nM): 12% | inhibition at 0.01 µM ([11]; 10 nM): 4% | inhibition at 0.1 µM ([11]; 100 nM): 13% | inhibition at 1 µM ([11]; 1000 nM): 61% | inhibition at 0.01 µM ([12]; 10 nM): -5% | inhibition at 0.1 µM ([12]; 100 nM): -7% | inhibition at 1 µM ([12]; 1000 nM): 13% | inhibition at 0.01 µM ([13]; 10 nM): -27% | inhibition at 0.1 µM ([13]; 100 nM): 6% | inhibition at 1 µM ([13]; 1000 nM): 1%
